This is an account of results in patent US11332459B2 (TEIJIN PHARMA LIMITED, priority 2017, dated 2022).

Structures can show the parent of a compound that is named as a salt.

This test deals with T1, human TRPC6 (Homo sapiens, UniProt Q9Y210).
T1 construct: expressed in transfected cells
T1 sequence (Q9Y210 1-931): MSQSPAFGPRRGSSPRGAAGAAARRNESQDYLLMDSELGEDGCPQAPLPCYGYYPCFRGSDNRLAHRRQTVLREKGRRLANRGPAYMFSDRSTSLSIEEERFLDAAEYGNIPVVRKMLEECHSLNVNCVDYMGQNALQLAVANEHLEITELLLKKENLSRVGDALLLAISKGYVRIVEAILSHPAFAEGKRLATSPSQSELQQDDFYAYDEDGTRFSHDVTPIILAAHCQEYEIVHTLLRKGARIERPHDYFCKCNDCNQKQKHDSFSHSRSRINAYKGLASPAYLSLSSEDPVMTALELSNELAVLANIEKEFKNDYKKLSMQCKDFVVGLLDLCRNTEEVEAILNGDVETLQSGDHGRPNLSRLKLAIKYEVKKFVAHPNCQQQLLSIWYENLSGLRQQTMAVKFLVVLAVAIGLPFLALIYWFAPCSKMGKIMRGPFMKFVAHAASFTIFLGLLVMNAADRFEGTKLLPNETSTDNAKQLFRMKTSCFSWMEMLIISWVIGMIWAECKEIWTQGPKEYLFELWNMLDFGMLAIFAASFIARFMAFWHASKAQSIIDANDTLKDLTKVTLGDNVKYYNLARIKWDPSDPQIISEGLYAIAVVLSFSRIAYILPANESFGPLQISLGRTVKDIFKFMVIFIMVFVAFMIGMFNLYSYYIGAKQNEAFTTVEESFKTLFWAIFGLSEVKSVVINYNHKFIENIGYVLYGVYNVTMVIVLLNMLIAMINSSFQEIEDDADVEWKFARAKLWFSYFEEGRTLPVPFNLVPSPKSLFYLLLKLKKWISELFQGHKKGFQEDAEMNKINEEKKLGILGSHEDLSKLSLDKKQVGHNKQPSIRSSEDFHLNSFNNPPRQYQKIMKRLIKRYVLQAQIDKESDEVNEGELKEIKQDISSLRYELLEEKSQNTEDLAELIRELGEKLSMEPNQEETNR
The experiment in a line: TRPC6 calcium flux assay (FLIPR, OAG-stimulated calcium influx). Format: cell-based. Particulars: HEK293 cells stably transfected with human TRPC6, read-out: hTRPC6 Potency. A digest of the protocol:
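IC50 derived by plotting background-corrected peak fluorescence (180 s window, normalized to OAG-triggered signal vs buffer) against dose. Stable human TRPC6 HEK293 line was dye-loaded, exposed to compound 25 min, then challenged with 50 uM final OAG in 2 mM Ca2+ HEPES buffer pH 7.2, 0.5% DMSO.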
For `N[C@@H]1CN(c2nc3cc(F)ccc3n2Cc2ncc(Cl)cn2)CC[C@H]1F` [Example 290, (3R,4R)-1-(1-((5-chloropyrimidin-2-yl)methyl)-5-fluoro-1H-benzo[d]imidazol-2-yl)-4-fluoropiperidin-3-amine], the IC50 was found to be 1.97 µM.

Take `N#Cc1ccc(Cn2c(N3CCC[C@@H](N)C3)nc3ccccc32)nc1` [Example 291, (R)-6-((2-(3-aminopiperidin-1-yl)-1H-benzo[d]imidazol-1-yl)methyl)nicotinonitrile]: the IC50 was > 3.75 µM. In the case of `N#Cc1ccc(Cn2c(N3CCC[C@@H](N)C3)nc3ccccc32)cn1` [Example 292, (R)-5-((2-(3-aminopiperidin-1-yl)-1H-benzo[d]imidazol-1-yl)methyl)picolinonitrile 2,2,2-trifluoroacetate], the IC50 turned out to be 0.0625 µM. On to `N[C@@H]1CCCN(c2nc3ccccc3n2Cc2ccc3ccncc3c2)C1` [Example 293, (R)-1-(1-(isoquinolin-7-ylmethyl)-1H-benzo[d]imidazol-2-yl)piperidin-3-amine], for which the IC50 was found to be 2.92 µM. The figure for `C[C@H](c1ccc(C#N)cn1)n1c(N2CCC[C@H](N)C2)nc2ccccc21` [Example 295, 6-((R)-1-(2-((S)-3-aminopiperidin-1-yl)-1H-benzo[d]imidazol-1-yl)ethyl)nicotinonitrile hydrochloride] is 0.00507 µM; for `C[C@@H](c1ccc(C#N)cn1)n1c(N2CCC[C@H](N)C2)nc2ccccc21` [Example 296, 6-((S)-1-(2-((S)-3-aminopiperidin-1-yl)-1H-benzo[d]imidazol-1-yl)ethyl)nicotinonitrile hydrochloride] it is 0.00765 µM; for `C[C@H](c1ccc(C#N)cn1)n1c(N2CC[C@@H](F)[C@H](N)C2)nc2ccccc21` [Example 297, 6-((R)-1-(2-((3R,4R)-3-amino-4-fluoropiperidin-1-yl)-1H-benzo[d]imidazol-1-yl)ethyl)nicotinonitrile hydrochloride] it is 0.0785 µM. Turning to `C[C@@H](c1ccc(C#N)cn1)n1c(N2CC[C@@H](F)[C@H](N)C2)nc2ccccc21` [Example 298, 6-((S)-1-(2-((3R,4R)-3-amino-4-fluoropiperidin-1-yl)-1H-benzo[d]imidazol-1-yl)ethyl)nicotinonitrile hydrochloride], the IC50 turned out to be 0.0172 µM. For `CC[C@H](c1ccc(C#N)cn1)n1c(N2CCC[C@H](N)C2)nc2ccccc21` [Example 299, 6-((R)-1-(2-((S)-3-aminopiperidin-1-yl)-1H-benzo[d]imidazol-1-yl)propyl)nicotinonitrile hydrochloride], the IC50 stood at 0.00876 µM. Turning to `CC[C@@H](c1ccc(C#N)cn1)n1c(N2CCC[C@H](N)C2)nc2ccccc21` [Example 300, 6-((S)-1-(2-((S)-3-aminopiperidin-1-yl)-1H-benzo[d]imidazol-1-yl)propyl)nicotinonitrile hydrochloride], the IC50 came out at 0.406 µM. With `N[C@@H]1CN(c2nc3cc(F)c(F)cc3n2Cc2ccc(F)cn2)CC[C@@H]1F` [Example 304, (3R,4S)-1-(5,6-difluoro-1-((5-fluoropyridin-2-yl)methyl)-1H-benzo[d]imidazol-2-yl)-4-fluoropiperidin-3-amine] the figure was 0.0524 µM; with `N[C@@H]1CN(c2nc3ccc(C(F)(F)F)cc3n2Cc2ncc(F)cn2)CC[C@@H]1F` [Example 305, (3R,4S)-4-fluoro-1-(1-((5-fluoropyrimidin-2-yl)methyl)-6-(trifluoromethyl)-1H-benzo[d]imidazol-2-yl)piperidin-3-amine], 0.000288 µM; with `N[C@@H]1CN(c2nc3cc(C(F)(F)F)ccc3n2Cc2ncc(F)cn2)CC[C@@H]1F` [Example 306, (3R,4S)-4-fluoro-1-(1-((5-fluoropyrimidin-2-yl)methyl)-5-(trifluoromethyl)-1H-benzo[d]imidazol-2-yl)piperidin-3-amine], 1.43 µM. Turning to `N[C@@H]1CN(c2nc3cc(F)c(F)cc3n2Cc2ccc(F)cn2)CCC1(F)F` [Example 307, (R)-1-(5,6-difluoro-1-((5-fluoropyridin-2-yl)methyl)-1H-benzo[d]imidazol-2-yl)-4,4-difluoropiperidin-3-amine], the IC50 is 0.376 µM.

With `N[C@@H]1CN(c2nc3ccc(C(F)(F)F)cc3n2CC(=O)N2CCC2)CC[C@@H]1F` [Example 308, 2-(2-((3R,4S)-3-amino-4-fluoropiperidin-1-yl)-6-(trifluoromethyl)-1H-benzo[d]imidazol-1-yl)-1-(azetidin-1-yl)ethan-1-one], the IC50 is > 3.75 µM.

With `N[C@@H]1CN(c2nc3cc(C(F)(F)F)ccc3n2CC(=O)N2CCC2)CC[C@@H]1F` [Example 309, 2-(2-((3R,4S)-3-amino-4-fluoropiperidin-1-yl)-5-(trifluoromethyl)-1H-benzo[d]imidazol-1-yl)-1-(azetidin-1-yl)ethan-1-one], the IC50 amounted to 0.28 µM. With `CC1(C)CCCN1C(=O)Cn1c(N2CC[C@@H](F)[C@H](N)C2)nc2cc(F)c(F)cc21` [Example 310, 2-(2-((3R,4R)-3-amino-4-fluoropiperidin-1-yl)-5,6-difluoro-1H-benzo[d]imidazol-1-yl)-1-(2,2-dimethylpyrrolidin-1-yl)ethan-1-one] the figure was 0.765 µM; with `N#Cc1ccc(Cn2c(N3CC[C@H](O)[C@H](N)C3)nc3ccc(F)cc32)nc1` [Example 311, 6-((2-((3R,4S)-3-amino-4-hydroxypiperidin-1-yl)-6-fluoro-1H-benzo[d]imidazol-1-yl)methyl)nicotinonitrile], 0.217 µM.

As for `N#Cc1ccc(Cn2c(N3CC[C@H](O)[C@H](N)C3)nc3cc(F)ccc32)nc1` [Example 312, 6-((2-((3R,4S)-3-amino-4-hydroxypiperidin-1-yl)-5-fluoro-1H-benzo[d]imidazol-1-yl)methyl)nicotinonitrile], the IC50 is 2.86 µM. With `C[C@H](c1ccc(C#N)cc1)n1c(N2CCC[C@H](N)C2)nc2ccccc21` [Example 313, 4-((R)-1-(2-((S)-3-aminopiperidin-1-yl)-1H-benzo[d]imidazol-1-yl)ethyl)benzonitrile hydrochloride] the figure was 15.8 µM; with `C[C@@H](c1ccc(C#N)cc1)n1c(N2CCC[C@H](N)C2)nc2ccccc21` [Example 314, 4-((S)-1-(2-((S)-3-aminopiperidin-1-yl)-1H-benzo[d]imidazol-1-yl)ethyl)benzonitrile hydrochloride], > 50 µM. For the compound `N#Cc1ccc(Cn2c(N3CCC[C@H](N)C3)nc3ccccc32)c(F)c1` [Example 315, (S)-4-((2-(3-aminopiperidin-1-yl)-1H-benzo[d]imidazol-1-yl)methyl)-3-fluorobenzonitrile hydrochloride], the IC50 is > 50 µM. The figure for `N[C@H]1CCCN(c2nc3ccccc3n2Cc2ccc(Cl)cc2)C1` [Example 316, (S)-1-(1-(4-chlorobenzyl)-1H-benzo[d]imidazol-2-yl)piperidin-3-amine hydrochloride] is 0.00204 µM; for `C[C@H](c1ccc(C#N)cc1)n1c(N2CC[C@H](F)[C@H](N)C2)nc2ccccc21` [Example 317, 4-((R)-1-(2-((3R,4S)-3-amino-4-fluoropiperidin-1-yl)-1H-benzo[d]imidazol-1-yl)ethyl)benzonitrile hydrochloride] it is 1.36 µM. With `C[C@@H](c1ccc(C#N)cc1)n1c(N2CC[C@H](F)[C@H](N)C2)nc2ccccc21` [Example 318, 4-((S)-1-(2-((3R,4S)-3-amino-4-fluoropiperidin-1-yl)-1H-benzo[d]imidazol-1-yl)ethyl)benzonitrile hydrochloride] the figure was 0.0377 µM; with `C[C@H](c1ccc(C#N)cc1)n1c(N2CC[C@@H](F)[C@H](N)C2)nc2ccccc21` [Example 319, 4-((R)-1-(2-((3R,4R)-3-amino-4-fluoropiperidin-1-yl)-1H-benzo[d]imidazol-1-yl)ethyl)benzonitrile hydrochloride], 0.456 µM; with `C[C@@H](c1ccc(C#N)cc1)n1c(N2CC[C@@H](F)[C@H](N)C2)nc2ccccc21` [Example 320, 4-((S)-1-(2-((3R,4R)-3-amino-4-fluoropiperidin-1-yl)-1H-benzo[d]imidazol-1-yl)ethyl)benzonitrile hydrochloride], 0.012 µM.

As for `N#Cc1ccc(Cn2c(N3CCC[C@H](N)C3)nc3ccccc32)c(Cl)c1` [Example 321, (S)-4-((2-(3-aminopiperidin-1-yl)-1H-benzo[d]imidazol-1-yl)methyl)-3-chlorobenzonitrile hydrochloride], the IC50 was 0.00407 µM.
